# Results from patent US20160046616A1, “NRF2 SMALL MOLECULE INHIBITORS FOR CANCER THERAPY” (THE JOHNS HOPKINS UNIVERSITY, priority 2013, published 2016).
# Test system: orthotopic lung tumor model (large cell model)
# Test: Orthotopic lung tumor model (large cell model)
# Assay type: in vivo, Mice
# Conditions: two weeks post-treatment; single agent and combination with carboplatin
# Source text: For each group, pretreatment available lung volume was defined as 100% and compared with post-treatment lung volumes.
smiles,measurement,value
Cc1ccccc1C(=O)N1CCc2cc(-c3nc(NC(=O)Cc4ccc5c(c4)OCO5)sc3C)ccc21 [compound 4],"Tumor free lung volume, orthotopic lung tumor model",shows anti-tumor efficacy as a single agent and in combination with carboplatin
